Measured values as given in patent publication US8849577B2, “Methods of identifying biochemical pathways” (Metabolon, Inc., priority 2006, dated 2014).
Entries after “also recorded” stand apart in the source; their conditions may differ.

Columns and labels:
Assay type in all cases: cell-based, human
[1] = test system: HepG2; assay: Metabolomic analysis of test compounds in HepG2 (hepatocyte) cultures; conditions: Hepatocytes, 30 μM, vs DMSO; for number of compounds affected, # decreased / number of compounds affected, # increased: p < 0.01
Experimental: (§1) The cell cultures used in this example were performed according to standard protocols with the cells in 10% FCS. […] The adipocytes were human and fully differentiated.
(§2) The target of the agent is not present in the cell cultures assayed, thus the changed compounds for each culture represent off-target effects, and therefore, the number of changed compounds can be used to generate a score that can be used as one criteria to rank the test compounds.

[2] = test system: adipocyte cells; assay: Metabolomic analysis of test compounds in adipocyte cultures; conditions: Primary Adipocytes, 30 μM, vs DMSO; for number of compounds affected, # decreased / number of compounds affected, # increased: p < 0.01
Experimental: as §1, §2

[3] = test system: preadipocyte cells; assay: Comparative metabolomic analysis of PPAR activators in preadipocyte cells; conditions: 3 hours treatment
Experimental: The cell used in this assay were preadipocyte cells from a human with a BMI of 23.29. The cells were plated at 1 million per well in 6-well plates. Eight cultures were used for each experimental group. The cells were washed with basal medium (1 ml/well) and treated with compounds in 1 ml of basal medium for 3 hours. After treatment, the cells were then washed with PBS (1 ml), two times and then trypsinized with 300 μl for 5 minutes at 37 degrees. One ml of PM-1 was then added per well to neutralized the trypsin and the cells were collected in 1.5 ml eppendorf tube. The cells were then pelleted by centrifugation (280×g) and the pellets were washed with PBS (1 ml). The cell pellets were then frozen at −80 degrees.

SMILES	Ratio Drug/DMSO: 3-phospho-I-serine [3]	Ratio Drug/DMSO: Isobar-17-includes-arginine-N-alpha-acetyl-ornithine [3]	Ratio Drug/DMSO: Isobar-22-includes-glutamic acid-O-acetyl-L-serine [3]	Ratio Drug/DMSO: Isobar-28-includes-L-threonine-L-allothreonine-L-homoserine [3]	Ratio Drug/DMSO: L-alpha-glycerophosphorylcholine [3]	Ratio Drug/DMSO: N-acetyl-D-galactosamine [3]	Ratio Drug/DMSO: adenosine-5-monophosphate [3]	Ratio Drug/DMSO: alanine [3]	Ratio Drug/DMSO: carnitine [3]	Ratio Drug/DMSO: citric acid [3]	Ratio Drug/DMSO: gly-gly [3]	Ratio Drug/DMSO: glycerol [3]	Ratio Drug/DMSO: guanosine [3]	Ratio Drug/DMSO: hypoxanthine [3]	Ratio Drug/DMSO: inosine [3]	Ratio Drug/DMSO: n-hexadecanoic acid [3]	Ratio Drug/DMSO: octadecanoic acid [3]	Ratio Drug/DMSO: pantothenic acid [3]	Ratio Drug/DMSO: phosphoenolpyruvate [3]	Ratio Drug/DMSO: serine [3]	other results
COC(=O)N[C@H](C(=O)N[C@@H](Cc1ccccc1)[C@@H](O)CN(Cc1ccc(-c2ccccn2)cc1)NC(=O)[C@@H](NC(=O)OC)C(C)(C)C)C(C)(C)C [ATV]																					number of compounds affected, Total p < 0.01 [1]: 71; number of compounds affected, # decreased [1]: 55; number of compounds affected, # increased [1]: 16; number of compounds affected, Total p < 0.01 [2]: 87; number of compounds affected, # decreased [2]: 55; number of compounds affected, # increased [2]: 32
CC1(COc2ccc(CC3SC(=O)NC3=O)cc2)CCCCC1 (stereo not shown) [Ciglitazone]	0.91	0.87	0.99	0.72	1.81	0.36	1.09	0.91	0.90	0.86	1.36	0.93	1.55	1.76	2.25	1.05	1.05	1.10	0.76	0.98	Ratio Drug/DMSO: aspartate [3]: 1.29; Ratio Drug/DMSO: gamma-L-glutamyl-L-glutamin [3]: 0.73; Ratio Drug/DMSO: glutamine [3]: 0.78; Ratio Drug/DMSO: o-phosphoethanolamine [3]: 5.42; Ratio Drug/DMSO: oxidized-glutathione [3]: 0.77; Ratio Drug/DMSO: sn-glycerol-3-phosphate [3]: 1.53; Ratio Drug/DMSO: threonine [3]: 0.84; Ratio Drug/DMSO: tryptophan [3]: 0.91
CC(C)(Sc1ccc(CCN(CCCCC2CCCCC2)C(=O)NC2CCCCC2)cc1)C(=O)O [GW7647]	0.89	0.97	0.86	0.82	1.31	0.98	1.41	0.95	0.83	1.06	1.12	1.14	1.22	1.89	1.89	1.02	1.02	0.96	0.91	1.05	Ratio Drug/DMSO: sn-glycerol-3-phosphate [3]: 1.43; Ratio Drug/DMSO: tryptophan [3]: 1.06; metabolite change relative to DMSO control [3]: increase in glycerol; also recorded: more carnitine is being utilized to shuffle FA into the mitochondria and hence, levels decrease
Cc1cccc(C)c1OCC(=O)N[C@@H](Cc1ccccc1)[C@@H](O)C[C@H](Cc1ccccc1)NC(=O)[C@H](C(C)C)N1CCCNC1=O [LPV]																					number of compounds affected, Total p < 0.01 [1]: 131; number of compounds affected, # decreased [1]: 27; number of compounds affected, # increased [1]: 104; number of compounds affected, Total p < 0.01 [2]: 99; number of compounds affected, # decreased [2]: 46; number of compounds affected, # increased [2]: 53
Cc1c(C)c2c(c(C)c1O)CCC(C)(COc1ccc(CC3SC(=O)NC3=O)cc1)O2 (stereo not shown) [Troglitazone, troglitazone]	0.77	0.82	0.92	0.63	1.24	0.91	0.95	0.86	0.92	0.77	1.42	1.08	0.98	1.63	1.58	1.17	1.18	1.33	0.85	0.86	Ratio Drug/DMSO: aspartate [3]: 2.06; Ratio Drug/DMSO: gamma-L-glutamyl-L-glutamin [3]: 0.64; Ratio Drug/DMSO: glutamine [3]: 0.76; Ratio Drug/DMSO: o-phosphoethanolamine [3]: 1.50; Ratio Drug/DMSO: oxidized-glutathione [3]: 0.77; Ratio Drug/DMSO: sn-glycerol-3-phosphate [3]: 1.42; Ratio Drug/DMSO: threonine [3]: 0.83; Ratio Drug/DMSO: tryptophan [3]: 0.98
